Test results taken from publication PMC9106665 (Communications Biology, 2022).
Where a chain is given by its changes, count along the chain named. Where “and” joins values, the source holds several entries; their conditions need not be identical. Equal entries are not always repeated.

What was measured:
DfrA1 [1] = target: T1, DfrA1 (Escherichia coli, UniProt P00382); assay: biochemical; type: binding, E. coli
T1 construct: dfrA1 gene (UniProtKB:A4GRC7) were synthesized and cloned in pET-41a (+) vector; made in house; host or cells: E. coli BL21(DE3)
T1 sequence (P00382 1-157): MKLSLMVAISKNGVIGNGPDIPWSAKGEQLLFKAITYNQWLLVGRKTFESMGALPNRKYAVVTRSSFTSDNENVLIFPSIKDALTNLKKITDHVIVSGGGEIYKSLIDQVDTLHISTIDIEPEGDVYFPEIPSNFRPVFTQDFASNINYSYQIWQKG

DfrA5 [2] = target: T2, DfrA5 (Escherichia coli, UniProt P11731); type: binding, E. coli; parameters: E. coli dfrA5 gene (UniProtKB:A0A4Y6L037) was synthesized and cloned in pET-24a (+) vector with the same restriction sites; 6xHis tag (C); made in house; host or cells: E. coli BL21(DE3); conditions: binary complex, 10× molar excess of ligand
Procedure: (§1) In all, 200 µg of purified enzyme was preincubated for 18 h without and with a 10× molar excess of the ligand(s) (NADPH, TMP or PLA) in 20 mM Hepes 7.5, 100 mM KCl, 5% glycerol, ±2.0% DMSO and 2 mM DTT buffer. […] Changes in intrinsic fluorescence intensity (measured ratio of absorbance at 350 nm over 330 nm) from tryptophan residues were used to calculate derivatives using the evaluation features provided by the Tycho instrument. The inflection temperature (Ti) as a marker of protein structural integrity was determined by the first derivative of the signal (ratio of 350 nm/330 nm).

DfrA1 [3] = type: biochemical, E. coli
From the text: (§2) using a nonlinear regression method in GraphPad Prism 9.2.0 software. To determine the turnover number (kcat) using the same model, the enzyme concentration (based on the protein concentration determined by Bradford assay) was constrained to a constant value and analyzed by the following equation (Eq. 3):3 Y=Et×kcat×X/(Km+X)

DfrA5 [4] = type: biochemical, E. coli
From the text: as §2

EcDHFR D27E/L28Q = target: T3, EcDHFR D27E/L28Q (Escherichia coli, UniProt P0ABQ4, D27E/L28Q); assay: Steady-state kinetic measurements; type: biochemical; conditions: varied substrate 1 to 200 µM, 25 °C
T3 construct: using E. coli DHFR template previously synthesized by GeneScript; made in house; host or cells: E. coli BL21(DE3)
T3 sequence (P0ABQ4 1-159 D27E/L28Q): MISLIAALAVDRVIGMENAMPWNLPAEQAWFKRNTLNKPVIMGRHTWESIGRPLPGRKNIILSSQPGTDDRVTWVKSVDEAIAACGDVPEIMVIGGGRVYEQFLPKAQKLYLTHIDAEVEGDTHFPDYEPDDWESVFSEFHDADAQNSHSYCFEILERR
From the text: as §2

EcDHFR L28Q = target: T4, EcDHFR L28Q (Escherichia coli, UniProt P0ABQ4, L28Q); assay: Steady-state kinetic measurements; type: biochemical; conditions: varied substrate 1 to 200 µM, 25 °C
T4 construct: using E. coli DHFR template previously synthesized by GeneScript; made in house; host or cells: E. coli BL21(DE3)
T4 sequence (P0ABQ4 1-159 L28Q): T3 sequence (P0ABQ4 1-159 D27E/L28Q) with E27D
From the text: as §2

EcDHFR D27E = target: T5, EcDHFR D27E (Escherichia coli, UniProt P0ABQ4, D27E); assay: Steady-state kinetic measurements; type: biochemical; conditions: varied substrate 1 to 200 µM, 25 °C
T5 construct: using E. coli DHFR template previously synthesized by GeneScript; made in house; host or cells: E. coli BL21(DE3)
T5 sequence (P0ABQ4 1-159 D27E): T3 sequence (P0ABQ4 1-159 D27E/L28Q) with Q28L
From the text: as §2

EcDHFR [5] = target: T6, EcDHFR (Escherichia coli, UniProt P0ABQ4); assay: biochemical; type: binding
T6 construct: E. coli DHFR gene (UniProtKB:P0ABQ4) and dfrA1 gene (UniProtKB:A4GRC7) were synthesized and cloned in pET-41a (+) vector; made in house; host or cells: E. coli BL21(DE3)

DfrA5 [6] = target: T2, DfrA5; assay: biochemical; type: binding, E. coli
EcDHFR [7] = target: T6, EcDHFR; type: binding; conditions: binary complex, 10× molar excess of ligand
Procedure: as §1, with “instrument.” for “instrument. The inflection temperature (Ti) as a marker of protein structural integrity was determined by the first derivative of the signal (ratio of 350 nm/330 nm).”

DfrA1 [8] = target: T1, DfrA1; type: binding, E. coli; conditions: binary complex, 10× molar excess of ligand
Procedure: as §1, with “instrument.” for “instrument. The inflection temperature (Ti) as a marker of protein structural integrity was determined by the first derivative of the signal (ratio of 350 nm/330 nm).”

T2 sequence (P11731 whole entry): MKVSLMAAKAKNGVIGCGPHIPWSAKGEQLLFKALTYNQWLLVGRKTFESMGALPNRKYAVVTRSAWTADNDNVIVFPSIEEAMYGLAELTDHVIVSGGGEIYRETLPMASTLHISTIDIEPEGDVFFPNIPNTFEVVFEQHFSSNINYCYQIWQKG

## NC(=O)C1=CN([C@@H]2O[C@H](COP(=O)(O)OP(=O)(O)OC[C@H]3O[C@@H](n4cnc5c(N)ncnc54)[C@H](OP(=O)(O)O)[C@@H]3O)[C@@H](O)[C@H]2O)C=CC1 [NADPH]
DfrA1 [1]; KD, DfrA1:TMP, titrant NADPH
  Kd: 430 ± 95 nM
DfrA1 [1]; KD, DfrA1:UCP1228 (100 µM UCP1228), titrant NADPH
  Kd: 289 ± 51 nM
DfrA1 [1]; KD, DfrA1 apo
  Kd: 1650 ± 230 nM
DfrA1 [1]; KD, DfrA1 apo, series NADPH KD ± UCP1228
  Kd: 1040 ± 106 nM
DfrA1 [1]; Kd, DfrA1 apo form (Fig. S8)
  Kd: 1040 ± 110 nM
DfrA1 [1]; Kd, DfrA1 preincubated with 100 µM UCP1228, titrant NADPH (Fig. S8)
  Kd: 290 nM
DfrA1 [1]; NADPH KD ± Trimethoprim
  Fold change in KD: 4 and 3.8 ± 1.0
DfrA1 [1]; NADPH KD ± UCP1228
  Fold change in KD: 4 and 3.6 ± 0.7
DfrA5 [2]
  Ti: 69.2 ± 0.5 °C
  Δ (Ti shift vs apo): 2.9 °C
DfrA1 [3]
  fold increase in KM compared to EcDHFR: 2 fold
DfrA5 [4]
  fold increase in KM compared to EcDHFR: 3 fold
EcDHFR D27E/L28Q
  Km: 11.1 ± 1.6 µM
  kcat: 3.8 ± 0.2 s⁻¹
EcDHFR L28Q
  Km: 7.6 ± 1.3 µM
  kcat: 4.4 ± 0.2 s⁻¹
EcDHFR D27E
  Km: 5.8 ± 0.9 µM
  kcat: 5.9 ± 0.3 s⁻¹
EcDHFR [5]; EcDHFR apo
  Kd: 771 ± 145 nM
EcDHFR [5]; EcDHFR apo form, Fig. S5a titration
  Kd: 661 nM
EcDHFR [5]; EcDHFR:TMP (preincubated with 1 µM TMP), titrant NADPH
  Kd: 8 nM and 8.1 nM
EcDHFR [5]; NADPH KD ± Trimethoprim
  Fold change in KD: 95.2 ± 50.3
DfrA5 [6]; DfrA5:TMP, titrant NADPH
  Kd: 1540 ± 380 nM
DfrA5 [6]; DfrA5:UCP1228 (100 µM UCP1228), titrant NADPH
  Kd: 459 ± 157 nM
DfrA5 [6]; DfrA5 apo
  Kd: 7470 ± 1670 nM
DfrA5 [6]; DfrA5 apo form (Fig. S8)
  Kd: 6840 nM
DfrA5 [6]; DfrA5 apo, series NADPH KD ± UCP1228
  Kd: 6840 ± 1610 nM
DfrA5 [6]; DfrA5 preincubated with 100 µM UCP1228, titrant NADPH (Fig. S8)
  Kd: 450 nM
DfrA5 [6]; NADPH KD ± Trimethoprim
  Fold change in KD: 5 and 4.9 ± 1.6
DfrA5 [6]; NADPH KD ± UCP1228
  Fold change in KD: 15 and 14.9 ± 6.2
EcDHFR [7]
  Ti 1: 53.8 ± 0.4 °C
  Ti 2: 63.1 ± 1.3 °C
  Δ1 (Ti shift vs apo): 4.2 °C
  Δ2 (Ti shift vs apo): 2.9 °C
DfrA1 [8]
  Ti: 56.5 ± 0.8 °C
  Δ (Ti shift vs apo): 6.7 °C
